Consider one compound from PMC10812672, “Short Antimicrobial Peptide Derived from the Venom Gland Transcriptome of Pamphobeteus verdolaga Increases Gentamicin Susceptibility of Multidrug-Resistant Klebsiella pneumoniae” (Antibiotics, 2023).

The test system of test [1] is multidrug-resistant (MDR) strain of K. pneumoniae, clinical isolate. Description: microbe, parasite or virus in culture. In kind it is cell-based, Klebsiella pneumoniae. As to the method: A multidrug-resistant (MDR) strain of K. pneumoniae was identified and isolated from a tertiary-level hospital in Medellin, Colombia, using the VITEK-2 system (bioMérieux, Marcy-l’Étoile, France). The MDR strain was evaluated against several antibiotics at concentrations of 1.56–100 μM. […] In contrast, the strain was susceptible to doxycycline (Supplementary Figure S7g) and chloramphenicol (Supplementary Figure S7h), with MICs of 50 μM and 100 µM, respectively (Table 3). […] All of P. verdolaga’s AMPs were evaluated against the clinical isolate at concentrations of 1.56–200 µM (Supplementary Figure S8). […] A growth inhibition kinetic assay was conducted. […] All of P. verdolaga’s peptides at 100 μM induced morphological changes in the MDR K. pneumoniae, indicating membrane interactions, even though no significant inhibition was observed (Supplementary Figure S9).
The evaluation of the antimicrobial activity of the peptides was conducted using the CLSI’s broth microdilution method for bacterial susceptibility testing. For the screening phase, peptides were evaluated at a single 30 μM concentration, in triplicate and in three independent assays, against the E. coli ATCC® 8739, E. coli ATCC® 25922, S. aureus ATCC® 6538, or S. aureus ATCC® 29213 reference USP and CLSI strains. For the determination of MIC, MBC, or IC50, peptides or antibiotics were evaluated in concentrations between 1.56–200 µM. These evaluations were conducted in triplicate and in three independent assays, against the E. coli ATCC® 25922, S. aureus ATCC® 29213, E. faecalis ATCC® 49532, P. aeruginosa ATCC® 9027, and K. pneumoniae ATCC® BAA-1705, or the clinically isolated MDR strain. In detail, 1 mL of a glycerol stock solution of the ATCC® or clinically isolated bacterial strain was added to 9 mL of Mueller-Hinton Broth and incubated for 18 h, 180 rpm and 37 °C (Incubator 1000, Heidolph Instruments, Schwabach, Germany). After the incubation, 1 mL of the previous solution was transferred to a new recipient containing 9 mL of fresh Mueller-Hinton broth and incubated for 4 h, 180 rpm and 37 °C (Incubator 1000, Heidolph Instruments, Schwabach, Germany). During the second incubation, the peptides or the antibiotics were dissolved in PBS pH 7.20 in concentrations between 19.53–2500 µM (MC5 Micro Balance, Sartorius AG, Göttingen, Germany). An amount of 10 µL of either peptide or antibiotic was dispensed in triplicate in 96-well flat bottom culture plates, along with 10 µL of PBS (Negative activity control), BTM-P1 (Positive activity control), or 10 µL of Mueller-Hinton broth (Blank); then, 110 µL of Mueller-Hinton broth was poured in all wells. Following this, the bacteria were suspended in Mueller-Hinton broth up to a concentration of approximately 1.50 × 10^8 CFU/mL, as measured by optical density at 600 nm between 0.06 to 0.11 (0.5 McFarland standard), in a Multiskan SkyHigh spectrophotometer (ThermoFisher Scientific, Waltham, MA, USA). Amounts of 5 µL of the 1.50 × 10^8 CFU/mL suspension were added to each well (except for the blank) for a final well concentration of approximately 6 × 10^6 CFU/mL. The plate was incubated for 24 h at 37 °C (BE 500, Memmert GmbH, Büchenbach, Germany) and optical density was measured at 600 nm in a Multiskan SkyHigh spectrophotometer (ThermoFisher Scientific, Waltham, MI, USA). Following the measurement of optical density, plates were visually inspected to determine the MIC. Subsequently, 100 µL of the concentration associated to the MIC and 100 µL of the next higher concentration were added to Petri dishes containing Mueller-Hinton Agar. The dishes were then incubated for 24 h at 37 °C (BE 500, Memmert GmbH, Büchenbach, Germany). After incubation, the Petri dishes were visually inspected, and the MBC was determined in the absence of growth. IC50 values were interpolated from regressions with correlation values above 0.70. […]

Test [2] relates to MDR K. pneumoniae. Description: Isobologram analysis and FICI, PvAMP66 with gentamicin. In kind it is cell-based, Klebsiella pneumoniae. As to the method: Given the intermediate resistance to gentamicin, an isobologram analysis was used as a proof-of-concept to evaluate the interaction between PvAMP66 and the antibiotic. The growth inhibition of the clinical isolate was measured using peptide concentrations of 0.10–100 µM, and gentamicin concentrations of 0.10–50 µM (Supplementary Figure S10). Combined IC50 values were calculated and plotted in a graph with a secant line representing the IC50 values for PvAMP66 and gentamicin when used alone (Figure 2a). […] The concentrations adjacent to the aforementioned data point were evaluated. […] Additionally, a Fractional Inhibitory Concentration Index (FICI) of 0.59 was obtained.
For the isobologram analysis concentrations, ranges of 1.56 µM to 200 µM of the peptide and 0.07 µM to 100 µM of the gentamicin were used. The experiments were conducted in triplicate and repeated in two independent assays. The IC50 for each combination was determined using either logarithmic or linear regression. Then, when achieving 50% growth inhibition, the concentrations of the peptide and gentamicin were recorded and used to create an isobologram graph with a ‘peptide concentration’ vs. ‘gentamicin concentration’ plot. […] The fractional inhibitory concentration index was calculated as follows: FICI=Combined MICAntibiotic/MICAntibiotic+Combined MICPeptide/MICPeptide

The IC50 is the concentration needed to halve the response being measured. `CNC(C)C1CCC(N)C(OC2C(N)CC(N)C(OC3OCC(C)(O)C(NC)C3O)C2O)O1` (stereo not drawn) [Gentamicin, gentamicin]: the IC50 in test [1] (Klebsiella pneumoniae) was 33.4 µM; in test [2] (Klebsiella pneumoniae, with PvAMP66 9.85 µM, read-out: combined IC50 for gentamicin), 3.12 µM. The MIC in test [1] (Klebsiella pneumoniae, MDR K. pneumoniae clinical isolate) was 9.31 µg/mL; in test [1] (MDR K. pneumoniae clinical isolate, peptides 1.56–200 µM, antibiotics 1.56–100 µM, 24 h 37 °C), 50.00 µM. The “Classification at 10^6 CFU/mL” value in test [1] (MDR K. pneumoniae clinical isolate, CLSI classification) was “Intermediate resistant”. In test [2] (with 12.50 µM PvAMP66), the “combined MIC, gentamicin” value turned out to be 4.70 µM.
